Laboratory results as given in paper PMC5216056 (Nature Communications, 2017).

Columns and labels:
hCB1R [1] = molecular target: T1, hCB1R (Homo sapiens, UniProt P21554); test: biochemical; type: binding
T1 construct: host or cells: CHO

hCB1R [2] = molecular target: T1, hCB1R; test: cell-based; type: cell-based
A3 (h) = molecular target: T2, A3 (h) (Homo sapiens, UniProt P0DMS8); test: CEREP panel; type: binding; settings: 10 µM
T2 construct: CEREP
T2 sequence (P0DMS8 1-318): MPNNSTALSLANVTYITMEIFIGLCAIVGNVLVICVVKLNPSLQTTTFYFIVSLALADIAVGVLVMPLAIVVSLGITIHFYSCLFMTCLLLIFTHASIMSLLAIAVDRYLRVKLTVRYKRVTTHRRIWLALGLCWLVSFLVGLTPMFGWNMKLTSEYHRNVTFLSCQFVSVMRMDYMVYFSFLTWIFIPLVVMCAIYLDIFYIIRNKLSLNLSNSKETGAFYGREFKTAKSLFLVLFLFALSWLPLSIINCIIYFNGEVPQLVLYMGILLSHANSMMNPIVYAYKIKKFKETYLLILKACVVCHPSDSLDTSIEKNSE

alpha 2A (h) = molecular target: T3, alpha 2A (h) (Homo sapiens, UniProt P08913); test: CEREP panel; type: binding; settings: 10 µM
T3 construct: CEREP
T3 sequence (P08913 1-465): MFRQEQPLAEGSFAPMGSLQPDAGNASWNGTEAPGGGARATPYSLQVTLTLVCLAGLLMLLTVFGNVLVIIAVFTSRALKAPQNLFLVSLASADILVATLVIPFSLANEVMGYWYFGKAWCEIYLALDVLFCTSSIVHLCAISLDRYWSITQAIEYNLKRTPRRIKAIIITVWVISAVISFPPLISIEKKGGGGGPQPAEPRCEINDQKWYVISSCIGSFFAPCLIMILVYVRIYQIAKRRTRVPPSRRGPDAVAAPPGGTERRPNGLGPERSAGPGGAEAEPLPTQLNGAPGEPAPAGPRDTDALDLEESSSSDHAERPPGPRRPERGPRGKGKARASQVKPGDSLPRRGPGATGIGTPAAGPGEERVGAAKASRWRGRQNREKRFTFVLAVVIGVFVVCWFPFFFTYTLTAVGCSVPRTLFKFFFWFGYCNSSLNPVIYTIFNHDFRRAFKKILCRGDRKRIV

[3] = test system: Ca2+ channel (verapamil site); test: CEREP panel; type: binding; settings: 10 µM
Na+ channel (site 2) = type: binding; settings: 10 µM
NK3 (h) = molecular target: T4, NK3 (h) (Homo sapiens, UniProt P29371); test: CEREP panel; type: binding; settings: 10 µM
T4 construct: CEREP (contract assay)
T4 sequence (P29371 1-465): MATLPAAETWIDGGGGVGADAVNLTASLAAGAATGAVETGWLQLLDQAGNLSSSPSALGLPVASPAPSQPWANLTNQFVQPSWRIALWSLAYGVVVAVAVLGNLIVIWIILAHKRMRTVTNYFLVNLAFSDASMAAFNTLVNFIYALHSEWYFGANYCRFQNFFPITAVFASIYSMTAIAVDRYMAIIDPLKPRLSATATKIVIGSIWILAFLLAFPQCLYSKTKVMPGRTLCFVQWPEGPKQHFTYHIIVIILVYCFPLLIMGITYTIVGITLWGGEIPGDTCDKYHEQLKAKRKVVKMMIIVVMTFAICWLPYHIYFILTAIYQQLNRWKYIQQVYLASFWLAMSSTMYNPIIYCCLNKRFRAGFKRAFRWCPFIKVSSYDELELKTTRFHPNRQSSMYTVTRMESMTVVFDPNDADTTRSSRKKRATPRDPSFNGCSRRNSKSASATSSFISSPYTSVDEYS

P2Y = test: CEREP panel; type: binding; settings: 10 µM
hCB2R = hCB2R (Homo sapiens, UniProt P34972); design: expressed in transfected cells; host or cells: Flp-In-293 (Invitrogen #R750-07), pcDNA5/FRT
Chain of hCB2R (P34972 whole entry): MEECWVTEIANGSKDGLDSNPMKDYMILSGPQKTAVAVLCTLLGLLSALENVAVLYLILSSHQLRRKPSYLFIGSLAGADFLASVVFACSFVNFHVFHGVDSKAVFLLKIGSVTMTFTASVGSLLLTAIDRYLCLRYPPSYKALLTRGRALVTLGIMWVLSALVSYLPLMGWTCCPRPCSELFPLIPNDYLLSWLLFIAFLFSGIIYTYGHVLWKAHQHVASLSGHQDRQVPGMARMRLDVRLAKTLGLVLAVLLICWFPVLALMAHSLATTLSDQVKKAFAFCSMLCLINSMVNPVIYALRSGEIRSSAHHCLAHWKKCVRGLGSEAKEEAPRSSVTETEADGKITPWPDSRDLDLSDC

T1 sequence (P21554 whole entry): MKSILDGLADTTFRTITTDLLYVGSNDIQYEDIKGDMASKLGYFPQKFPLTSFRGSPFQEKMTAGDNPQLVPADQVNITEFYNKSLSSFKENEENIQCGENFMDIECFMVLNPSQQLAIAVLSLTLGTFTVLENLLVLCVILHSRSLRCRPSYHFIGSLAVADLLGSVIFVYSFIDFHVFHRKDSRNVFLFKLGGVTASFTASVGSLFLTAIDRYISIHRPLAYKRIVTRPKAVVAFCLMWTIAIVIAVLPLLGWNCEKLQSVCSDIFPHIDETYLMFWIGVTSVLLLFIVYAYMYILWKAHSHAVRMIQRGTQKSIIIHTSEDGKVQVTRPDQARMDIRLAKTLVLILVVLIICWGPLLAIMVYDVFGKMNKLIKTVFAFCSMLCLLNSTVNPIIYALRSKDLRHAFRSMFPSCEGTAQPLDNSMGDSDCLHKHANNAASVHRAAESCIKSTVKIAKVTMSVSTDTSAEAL

Compound: CCCC(C)(C)c1ccc2c(c1)OC(C)(C)[C@@H]1CC=C(C)C[C@@H]21 [JWH133]
- pKi ± SEM hCB1R (hCB1R [1]): < 5
- Emax ± SEM β-AR recruitment hCB1R (hCB1R [2]): 40 ± 7
- pEC50 ± SEM β-AR recruitment hCB1R (hCB1R [2]): 5.37 ± 0.05
- % inhibition A3 (h) (A3 (h)): -26%
- % inhibition alpha 2A (h) (alpha 2A (h)): -18%
- % inhibition Ca2+ channel (verapamil site) [3]: 1%
- % inhibition Na+ channel (site 2) (Na+ channel (site 2)): -20%
- % inhibition NK3 (h) (NK3 (h)): -1%
- % inhibition P2Y (P2Y): 3%
- GIRK-GTPγS bias factor (BF) (hCB2R): 1.32
- GIRK-GTPγS ΔΔlogR (hCB2R): 0.12 ± 0.57
- GIRK-cAMP bias factor (BF) (hCB2R): 3.54
- GIRK-cAMP ΔΔlogR (hCB2R): 0.55 ± 0.42
- GTPγS-cAMP bias factor (BF) (hCB2R): 2.67
- GTPγS-cAMP ΔΔlogR (hCB2R): 0.43 ± 0.40
- LogR GIRK (hCB2R): 5.98
- LogR GTPγS (hCB2R): 6.27
- LogR cAMP (hCB2R): 8.28
- LogR pERK (hCB2R): 7.07
- LogR β-AR (hCB2R): 8.02
- RE GIRK (hCB2R): 0.01
- RE GTPγS (hCB2R): 0.01
- RE cAMP (hCB2R): 0.004
- RE pERK (hCB2R): 0.01
- RE β-AR (hCB2R): 0.33
- pERK-GIRK bias factor (BF) (hCB2R): 0.84
- pERK-GIRK ΔΔlogR (hCB2R): -0.08
- pERK-GTPγS bias factor (BF) (hCB2R): 1.11
- pERK-GTPγS ΔΔlogR (hCB2R): 0.05 ± 0.46
- pERK-cAMP bias factor (BF) (hCB2R): 2.97
- pERK-cAMP ΔΔlogR (hCB2R): 0.47 ± 0.26
- ΔLogR GIRK (hCB2R): -1.89
- ΔLogR GTPγS (hCB2R): -2.01
- ΔLogR cAMP (hCB2R): -2.44
- ΔLogR pERK (hCB2R): -1.96
- ΔLogR β-AR (hCB2R): -0.48
- β-AR-GIRK bias factor (BF) (hCB2R): 25.53
- β-AR-GIRK ΔΔlogR (hCB2R): 1.41 ± 0.43
- β-AR-GTPγS bias factor (BF) (hCB2R): 33.81
- β-AR-GTPγS ΔΔlogR (hCB2R): 1.53 ± 0.41
- β-AR-cAMP bias factor (BF) (hCB2R): 90.36
- β-AR-cAMP ΔΔlogR (hCB2R): 1.96 ± 0.15
- β-AR-pERK bias factor (BF) (hCB2R): 30.41
- β-AR-pERK ΔΔlogR (hCB2R): 1.48 ± 0.27
